Results on twelve molecules are retold here after patent US20160158317A1, “Antimicrobial Peptide Variants and Polynucleotides Encoding Same” (Adenium Biotech A/S, priority 2010, published 2016).

Where a SMILES comes first, the peptide text is derived from it. Bridges are numbered along the chain shown (N, C = ends).

A short description of this data set: Determination of the protein binding (90% serum, 30 kDa filter, HPLC). In kind it is in vitro ADME. Particulars: serum. How it is done:
Protein binding assays were performed as follows. The purified peptides were mixed with 90% serum and centrifuged through a 30 kDa filter. The ultra-filtrate and the non filtrated serum samples were quantified by HPLC measurements and the protein binding was subsequently calculated.
Broadly, the fraction unbound is the share of the substance not bound to proteins or other matrix. The molecule `CC(C)[C@@H]1NC(=O)CNC(=O)[C@H](CC(N)=O)NC(=O)[C@H](CCCNC(=N)N)NC(=O)[C@H](Cc2ccc(O)cc2)NC(=O)[C@H](C(C)C)NC(=O)[C@@H]2CSSC[C@H](NC(=O)[C@H](C(C)C)NC(=O)[C@H](CCCNC(=N)N)NC1=O)C(=O)N[C@@H](Cc1c[nH]cn1)C(=O)N[C@@H](CCCNC(=N)N)C(=O)N[C@@H](CCCNC(=N)N)C(=O)N[C@H](C(=O)N[C@@H](CC(N)=O)C(=O)O)CSSC[C@H](NC(=O)[C@H](Cc1ccccc1)NC(=O)[C@@H](N)CCCCN)C(=O)N[C@@H](Cc1c[nH]c3ccccc13)C(=O)N[C@@H](CC(N)=O)C(=O)N[C@@H](C(C)C)C(=O)N2` [compound 100] (H-KFCWNVCVYRNGVRVCHRRCN-OH; disulfide 3-20, 7-16 (inferred); N-terminus and C-terminus assumed) gave a fraction unbound of 0.22.

`CC(C)C[C@@H]1NC(=O)[C@@H]2CSSC[C@H](NC(=O)[C@H](C(C)C)NC(=O)[C@H](CCCNC(=N)N)NC(=O)[C@H](C(C)C)NC(=O)CNC(=O)[C@H](CC(N)=O)NC(=O)[C@H](CCCNC(=N)N)NC(=O)[C@H](Cc3ccc(O)cc3)NC1=O)C(=O)N[C@@H](Cc1c[nH]cn1)C(=O)N[C@@H](CCCNC(=N)N)C(=O)N[C@@H](CCCNC(=N)N)C(=O)N[C@H](C(=O)N[C@@H](CC(N)=O)C(=O)O)CSSC[C@H](NC(=O)[C@H](Cc1ccccc1)NC(=O)CN)C(=O)N[C@@H](Cc1c[nH]c3ccccc13)C(=O)N[C@@H](CC(N)=O)C(=O)N[C@@H](C(C)C)C(=O)N2` [compound 275] (H-GFCWNVCLYRNGVRVCHRRCN-OH; disulfide 3-20, 7-16 (inferred); N-terminus and C-terminus assumed) gave a fraction unbound of 0.2. The figure for `CC(C)[C@@H]1NC(=O)CNC(=O)[C@H](CC(N)=O)NC(=O)[C@H](CCCNC(=N)N)NC(=O)[C@H](Cc2ccc(O)cc2)NC(=O)[C@H](C(C)C)NC(=O)[C@@H]2CSSC[C@H](NC(=O)[C@H](CCC(N)=O)NC(=O)[C@H](CCCNC(=N)N)NC1=O)C(=O)N[C@@H](Cc1ccc(O)cc1)C(=O)N[C@@H](CCCNC(=N)N)C(=O)N[C@@H](CCCNC(=N)N)C(=O)N[C@H](C(=O)N[C@@H](CC(N)=O)C(=O)O)CSSC[C@H](NC(=O)[C@H](Cc1ccccc1)NC(=O)CN)C(=O)N[C@@H](Cc1c[nH]c3ccccc13)C(=O)N[C@@H](Cc1ccc(O)cc1)C(=O)N[C@@H](C(C)C)C(=O)N2` [compound 42] (H-GFCWYVCVYRNGVRQCYRRCN-OH; disulfide 3-20, 7-16 (inferred); N-terminus and C-terminus assumed) is 0.04. `CC(C)[C@@H]1NC(=O)CNC(=O)[C@H](CC(N)=O)NC(=O)[C@H](CCCNC(=N)N)NC(=O)[C@H](CCCNC(=N)N)NC(=O)[C@H](C)NC(=O)[C@@H]2CSSC[C@H](NC(=O)[C@H](C(C)C)NC(=O)[C@H](CCCNC(=N)N)NC1=O)C(=O)N[C@@H](Cc1ccc(O)cc1)C(=O)N[C@@H](CCCNC(=N)N)C(=O)N[C@@H](CCCNC(=N)N)C(=O)N[C@H](C(=O)N[C@@H](CC(N)=O)C(=O)O)CSSC[C@H](NC(=O)[C@H](Cc1ccccc1)NC(=O)CN)C(=O)N[C@@H](Cc1c[nH]c3ccccc13)C(=O)N[C@@H](Cc1c[nH]cn1)C(=O)N[C@@H](C(C)C)C(=O)N2` [compound 218] (H-GFCWHVCARRNGVRVCYRRCN-OH; disulfide 3-20, 7-16 (inferred); N-terminus and C-terminus assumed) gave a fraction unbound of 0.01. The result for `CC(C)[C@@H]1NC(=O)CNC(=O)CNC(=O)[C@H](CCCNC(=N)N)NC(=O)[C@H](Cc2ccc(O)cc2)NC(=O)[C@H](C(C)C)NC(=O)[C@@H]2CSSC[C@H](NC(=O)[C@H](C(C)C)NC(=O)[C@H](CCCNC(=N)N)NC1=O)C(=O)N[C@@H](Cc1c[nH]cn1)C(=O)N[C@@H](CCCNC(=N)N)C(=O)N[C@@H](CCCNC(=N)N)C(=O)N[C@H](C(=O)N[C@@H](CC(N)=O)C(=O)O)CSSC[C@H](NC(=O)[C@H](Cc1ccccc1)NC(=O)CN)C(=O)N[C@@H](Cc1c[nH]c3ccccc13)C(=O)N[C@@H](CC(N)=O)C(=O)N[C@@H](C(C)C)C(=O)N2` [compound 231] (H-GFCWNVCVYRGGVRVCHRRCN-OH; disulfide 3-20, 7-16 (inferred); N-terminus and C-terminus assumed) reads 0.34; that for `CC(C)[C@@H]1NC(=O)CNC(=O)[C@H](CC(N)=O)NC(=O)[C@H](CCCNC(=N)N)NC(=O)[C@H](Cc2ccc(O)cc2)NC(=O)[C@H](C(C)C)NC(=O)[C@@H]2CSSC[C@H](NC(=O)[C@H](C(C)C)NC(=O)[C@H](CCCNC(=N)N)NC1=O)C(=O)N[C@@H](Cc1ccc(O)cc1)C(=O)N[C@@H](CCCNC(=N)N)C(=O)N[C@@H](CCCNC(=N)N)C(=O)N[C@H](C(=O)N[C@@H](CC(N)=O)C(=O)O)CSSC[C@H](NC(=O)[C@H](Cc1ccccc1)NC(=O)CN)C(=O)N[C@@H](Cc1c[nH]c3ccccc13)C(=O)N[C@@H](Cc1ccc(O)cc1)C(=O)N[C@@H](CO)C(=O)N2` [compound 19] (H-GFCWYSCVYRNGVRVCYRRCN-OH; disulfide 3-20, 7-16 (inferred); N-terminus and C-terminus assumed), 0.11. With `CC(C)[C@@H]1NC(=O)CNC(=O)[C@H](CC(N)=O)NC(=O)[C@H](CCCNC(=N)N)NC(=O)[C@H](Cc2ccc(O)cc2)NC(=O)[C@H](C(C)C)NC(=O)[C@@H]2CSSC[C@H](NC(=O)[C@H](C(C)C)NC(=O)[C@H](CCCNC(=N)N)NC1=O)C(=O)N[C@@H](Cc1c[nH]cn1)C(=O)N[C@@H](CCCNC(=N)N)C(=O)N[C@@H](CCCNC(=N)N)C(=O)N[C@H](C(=O)N[C@@H](CC(N)=O)C(=O)O)CSSC[C@H](NC(=O)[C@H](Cc1ccccc1)NC(=O)CN)C(=O)N[C@@H](Cc1c[nH]c3ccccc13)C(=O)N[C@@H](Cc1ccc(O)cc1)C(=O)N[C@@H](C(C)C)C(=O)N2` [compound 46] (H-GFCWYVCVYRNGVRVCHRRCN-OH; disulfide 3-20, 7-16 (inferred); N-terminus and C-terminus assumed), the fraction unbound is 0.12. Molecule `CC(C)[C@@H]1NC(=O)CNC(=O)[C@H](CC(N)=O)NC(=O)[C@H](CCCNC(=N)N)NC(=O)[C@H](Cc2ccc(O)cc2)NC(=O)[C@H](C(C)C)NC(=O)[C@@H]2CSSC[C@H](NC(=O)[C@H](C(C)C)NC(=O)[C@H](CCCNC(=N)N)NC1=O)C(=O)N[C@@H](Cc1ccc(O)cc1)C(=O)N[C@@H](CCCNC(=N)N)C(=O)N[C@@H](CCCNC(=N)N)C(=O)N[C@H](C(=O)N[C@@H](CC(N)=O)C(=O)O)CSSC[C@H](NC(=O)[C@H](C)NC(=O)CN)C(=O)N[C@@H](Cc1c[nH]c3ccccc13)C(=O)N[C@@H](Cc1ccc(O)cc1)C(=O)N[C@@H](C(C)C)C(=O)N2` [compound 3] (H-GACWYVCVYRNGVRVCYRRCN-OH; disulfide 3-20, 7-16 (inferred); N-terminus and C-terminus assumed) showed a fraction unbound of 0.14.

As for `CC(C)[C@@H]1NC(=O)CNC(=O)[C@H](CC(N)=O)NC(=O)[C@H](CCCNC(=N)N)NC(=O)[C@H](Cc2ccc(O)cc2)NC(=O)[C@H](C(C)C)NC(=O)[C@@H]2CSSC[C@H](NC(=O)[C@H](CCCCN)NC(=O)[C@H](CCCNC(=N)N)NC1=O)C(=O)N[C@@H](Cc1c[nH]cn1)C(=O)N[C@@H](CCCNC(=N)N)C(=O)N[C@@H](CCCNC(=N)N)C(=O)N[C@H](C(=O)N[C@@H](CC(N)=O)C(=O)O)CSSC[C@H](NC(=O)[C@H](Cc1ccccc1)NC(=O)CN)C(=O)N[C@@H](Cc1c[nH]c3ccccc13)C(=O)N[C@@H](CCCNC(=N)N)C(=O)N[C@@H](C(C)C)C(=O)N2` [compound 315] (H-GFCWRVCVYRNGVRKCHRRCN-OH; disulfide 3-20, 7-16 (inferred); N-terminus and C-terminus assumed), the fraction unbound is 0.07. With `CC(C)[C@@H]1NC(=O)CNC(=O)[C@H](CC(N)=O)NC(=O)[C@H](CCCNC(=N)N)NC(=O)[C@H](Cc2ccc(O)cc2)NC(=O)[C@H](C(C)C)NC(=O)[C@@H]2CSSC[C@H](NC(=O)[C@H](C(C)C)NC(=O)[C@H](CCCNC(=N)N)NC1=O)C(=O)N[C@@H](Cc1c[nH]cn1)C(=O)N[C@@H](CCCNC(=N)N)C(=O)N[C@@H](CCCNC(=N)N)C(=O)N[C@H](C(=O)N[C@@H](CC(N)=O)C(=O)O)CSSC[C@H](NC(=O)[C@H](Cc1ccccc1)NC(=O)CN)C(=O)N[C@@H](Cc1c[nH]c3ccccc13)C(=O)N[C@@H](CCCNC(=N)N)C(=O)N[C@@H](C(C)C)C(=O)N2` [compound 76] (H-GFCWRVCVYRNGVRVCHRRCN-OH; disulfide 3-20, 7-16 (inferred); N-terminus and C-terminus assumed), the fraction unbound is 0.08. `CC(C)[C@@H]1NC(=O)CNC(=O)[C@H](CC(N)=O)NC(=O)[C@H](CCCNC(=N)N)NC(=O)[C@H](Cc2ccc(O)cc2)NC(=O)[C@H](C)NC(=O)[C@@H]2CSSC[C@H](NC(=O)[C@H](C)NC(=O)[C@H](CCCNC(=N)N)NC1=O)C(=O)N[C@@H](Cc1ccc(O)cc1)C(=O)N[C@@H](CCCNC(=N)N)C(=O)N[C@@H](CCCNC(=N)N)C(=O)N[C@H](C(=O)N[C@@H](CC(N)=O)C(=O)O)CSSC[C@H](NC(=O)[C@H](Cc1ccccc1)NC(=O)CN)C(=O)N[C@@H](Cc1c[nH]c3ccccc13)C(=O)N[C@@H](Cc1ccc(O)cc1)C(=O)N[C@@H](C)C(=O)N2` [compound 343] (H-GFCWYACAYRNGVRACYRRCN-OH; disulfide 3-20, 7-16 (inferred); N-terminus and C-terminus assumed): the fraction unbound is 0.26. With `CC(C)C[C@@H]1NC(=O)[C@H](CCCNC(=N)N)NC(=O)[C@H](C(C)C)NC(=O)CNC(=O)[C@H](CC(N)=O)NC(=O)[C@H](CCCNC(=N)N)NC(=O)[C@H](Cc2ccc(O)cc2)NC(=O)[C@H](C(C)C)NC(=O)[C@@H]2CSSC[C@H](NC1=O)C(=O)N[C@@H](Cc1c[nH]cn1)C(=O)N[C@@H](CCCNC(=N)N)C(=O)N[C@@H](CCCNC(=N)N)C(=O)N[C@H](C(=O)N[C@@H](CC(N)=O)C(=O)O)CSSC[C@H](NC(=O)[C@H](Cc1ccccc1)NC(=O)CN)C(=O)N[C@@H](Cc1c[nH]c3ccccc13)C(=O)N[C@@H](CC(N)=O)C(=O)N[C@@H](C(C)C)C(=O)N2` [compound 249] (H-GFCWNVCVYRNGVRLCHRRCN-OH; disulfide 3-20, 7-16 (inferred); N-terminus and C-terminus assumed), the fraction unbound was 0.17.
